The record followed here is patent US10370727B2, “Point mutations in TRK inhibitor-resistant cancer and methods relating to the same” (Loxo Oncology, Inc., priority 2015, dated 2019).

Where a name gives a salt, the structure may show the parent alone.

Common to all, as to assay type: cell-based
For experiment [1], the system named is cells expressing a MPRIP-NTRK1 fusion protein including Trk inhibitor resistance mutations. As to the kind of experiment: Proliferation (percent of control) of cells expressing mutant MPRIP-NTRK1 fusion. Particulars: TrkA substitutions V573M, F589L, G667S.
Experimental: In the genetic screen cDNAs harboring the MPRIP-NTRK1 oncogene were introduced into Ba/F3 cells. The Ba/F3 cells were treated with the mutagen, 100 μg/mL N-ethyl-N-nitrosourea (ENU; Sigma Aldrich, St. Louis, Mo.), overnight. […] At confluence, the cells were collected and genomic DNA was extracted. The NTRK1 kinase region was amplified and the PCR products were purified and sequenced. A plasmids encoding MPRIP-NTRK1 mutations were generated with QuickChange site-directed mutagenesis according to the manufacturer's instructions using a sequence encoding a wildtype MPRIP-NTRK1 fusion protein as a template. Each mutation was confirmed by DNA sequencing. The Ba/F3 cells and NIH353 cells expressing MPRIP-NTRK1 mutants were generated by infecting Ba/F3 and NIH353 parental cells with lentivirus encoding the mutation MPRIP-NTRK1 fusion proteins, followed by selection with puromycin.
The test system of experiment [2] is cells expressing a TRIM24-NTRK2 fusion protein including TrkB inhibitor resistance mutations. As to the kind of experiment: Proliferation (percent of control) of cells expressing mutant TRIM24-NTRK2 fusion. Conditions: Example 3; TrkB substitutions V601G, G623S, R630K. On the procedure: N-ethyl-N-nitrosourea (ENU)-exposed Ba/F3-MPRIP-NTRK1 and Ba/F3-TRIM24-NTRK2 cells were used to generate mutations permitting growth of Ba/F3 cells in the absence of IL-3 despite the presence of 100, 250, or 500 nM (S)—N-(5-((R)-2-(2,5-difluorophenyl)pyrrolidin-1-yl)pyrazolo[1,5-a]pyrimidin-3-yl)-3-hydroxypyrrolidine-1-c[…]. The Mutations identified by genomic DNA sequencing in the initial screen were validated by cloning the mutation-bearing cDNAs back into Ba/F3 cells to evaluate their sensitivity to (S)—N-(5-((R)-2-(2,5-DIFLUOROPHENYL)PYRROLIDIN-1-YL)PYRAZOLO[1,5-A]PYRIMIDIN-3-YL)-3-HYDROXYPYRROLIDINE-1-C[…] using both proliferation assays and TRK phosphorylation by immunoblot analyses. Modeling of the mutations was performed by mapping of the amino acid substitutions onto a drug-bound TRK kinase domain crystal structure.
Ba/F3 cells stably expressing MPRIP-NTRK1 or TRIM24-NTRK2 were treated overnight with […] N-Ethyl-N-nitrosourea (ENU), pelleted, resuspended in fresh media, and distributed in 96-well plates in 200 μL media supplemented with (S)—N-(5-((R)-2-(2,5-DIFLUOROPHENYL)PYRROLIDIN-1-YL)PYRAZOLO[1,5-A]PYRIMIDIN-3-YL)-3-HYDROXYPYRROLIDINE-1-C[…] (100, 250, and 500 nM). […]

Experiment [3] concerns TRKA and ERK1/2 activation in NIH3T3 cells expressing MPRIP-NTRK1 fusions. As to the kind of experiment: Western blot analysis of NIH3T3 cells expressing MPRIP-NTRK1 fusions. Particulars: 2 hours. On the technique in general: In western blotting, separated proteins are transferred to a membrane and probed.
Experiment [4] deals with TRKB and ERK1/2 activation in NIH3T3 cells expressing TRIM24-NTRK2 fusions. As to the kind of experiment: Western blot analysis of NIH3T3 cells expressing TRIM24-NTRK2 fusions. Conditions: 2 hours. The protocol: FIG. 11 is a photograph of a Western blot analysis of NIH3T3 cells treated with the indicated concentrations of (S)—N-(5-((R)-2-(2,5-difluorophenyl)pyrrolidin-1-yl)pyrazolo[1,5-a]pyrimidin-3-yl)-3-hydroxypyrrolidine-1-c[…] (Cmpd A) for 2 hours.
Ba/F3 cells stably expressing MPRIP-NTRK1 or TRIM24-NTRK2 were treated overnight with […] N-Ethyl-N-nitrosourea (ENU), pelleted, resuspended in fresh media, and distributed in 96-well plates in 200 μL media supplemented with (S)—N-(5-((R)-2-(2,5-DIFLUOROPHENYL)PYRROLIDIN-1-YL)PYRAZOLO[1,5-A]PYRIMIDIN-3-YL)-3-HYDROXYPYRROLIDINE-1-C[…] (100, 250, and 500 nM). […] The contents of outgrown wells were expanded in 12-well plates in media supplemented with (S)—N-(5-((R)-2-(2,5-DIFLUOROPHENYL)PYRROLIDIN-1-YL)PYRAZOLO[1,5-A]PYRIMIDIN-3-YL)-3-HYDROXYPYRROLIDINE-1-C[…] at the same concentration as in the initial 96-well plate. At confluence, cells were collected and genomic DNA was extracted. The NTRK1 and NTRK2 kinase region was PCR-amplified and sequenced. Plasmids encoding MPRIP-NTRK1 and TRIM24-NTRK2 mutations were generated with QuickChange site-directed mutagenesis and confirmed by DNA sequencing. Ba/F3 cells and NIH3T3 cells expressing MPRIP-NTRK1 mutants were generated by infecting Ba/F3 and NIH3T3 parental cells with lentivirus encoding MPRIP-NTRK1 mutation followed by selection with puromycin.

For the molecule `O=C(Nc1cnn2ccc(N3CCC[C@@H]3c3cc(F)ccc3F)nc12)N1CC[C@H](O)C1` [(S)—N-(5-((R)-2-(2,5-difluorophenyl)pyrrolidin-1-yl)pyrazolo[1,5-a]pyrimidin-3-yl)-3-hydroxypyrrolidine-1-carboxamide sulfate], the “resistance of cancer cells having a MPRIP-NTRK1 point mutation (POC, FIG. 4)” value in experiment [1] (Example 1, F600L, Y676S) was “increased resistance”. For the same molecule, the “resistance of cancer cells having a MPRIP-NTRK1 point mutation (percent of control, FIG. 7)” value in experiment [1] (Example 3) is on record as “increased resistance”. Besides, the “resistance of cancer cells having a TRIM24-NTRK2 point mutation (percent of control, FIG. 10)” value in experiment [2] is “increased resistance”. In addition, the “TRKA and ERK1/2 activation, sensitivity to inhibition (FIG. 8)” value is given as “resistant” in experiment [3] (NIH3T3 cells expressing MPRIP-NTRK1 V573M, F589L or G667S fusions) and “sensitive” in experiment [3] (NIH3T3 cells expressing MPRIP-NTRK1 WT fusion). Moreover, the “TRKB and ERK1/2 activation, sensitivity to inhibition (FIG. 11)” value in experiment [4] (NIH3T3 cells expressing TRIM24-NTRK2 V601G, G623S or R630K fusions) is on record as “resistant”; in experiment [4] (NIH3T3 cells expressing TRIM24-NTRK2 WT fusion), “sensitive”.
